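96-well plates; 48 h exposure; 5 concentrations. Endpoints by linear interpolation between flanking doses. Not reached: highest tested concentration assigned. Abbreviation: GI50, concentration required for 50% inhibition of growth. TGI is the concentration that stops growth completely.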
What was measured:
Experiment in all cases: NCI tumour cell line growth inhibition, 48 h
LOX IMVI melanoma = test system: LOX IMVI melanoma
SK-MEL-5 melanoma = test system: SK-MEL-5 melanoma
NCI-H226 lung = test system: NCI-H226 lung
SF-539 CNS = test system: SF-539 CNS
SN12C renal = test system: SN12C renal
HCC-2998 colon = test system: HCC-2998 colon
OVCAR-8 ovarian = test system: OVCAR-8 ovarian
NCI/ADR-RES ovarian = test system: NCI/ADR-RES ovarian
MDA-MB-435 = test system: MDA-MB-435
HS 578T breast = test system: HS 578T breast
K-562 leukemia = test system: K-562 leukemia
NCI-H23 lung = test system: NCI-H23 lung
COLO 205 colon = test system: COLO 205 colon
SNB-75 CNS = test system: SNB-75 CNS
SK-MEL-2 melanoma = test system: SK-MEL-2 melanoma
U251 CNS = test system: U251 CNS
SNB-19 CNS = test system: SNB-19 CNS
HOP-92 NSCLC = test system: HOP-92 NSCLC
RPMI-8226 leukemia = test system: RPMI-8226 leukemia
BT-549 breast = test system: BT-549 breast
MDA-MB-231 breast = test system: MDA-MB-231 breast
UO-31 renal = test system: UO-31 renal
HL-60(TB) leukemia = test system: HL-60(TB) leukemia
CAKI-1 renal = test system: CAKI-1 renal
OVCAR-4 ovarian = test system: OVCAR-4 ovarian
SK-MEL-28 melanoma = test system: SK-MEL-28 melanoma
HT29 colon = test system: HT29 colon
NCI-H522 lung = test system: NCI-H522 lung
HOP-62 NSCLC = test system: HOP-62 NSCLC
UACC-62 melanoma = test system: UACC-62 melanoma
SF-295 CNS = test system: SF-295 CNS
A549 NSCLC = test system: A549 NSCLC
ACHN renal = test system: ACHN renal
CCRF-CEM leukemia = test system: CCRF-CEM leukemia
SF-268 CNS = test system: SF-268 CNS
OVCAR-5 ovarian = test system: OVCAR-5 ovarian
UACC-257 melanoma = test system: UACC-257 melanoma
EKVX NSCLC = test system: EKVX NSCLC
MOLT-4 leukemia = test system: MOLT-4 leukemia
SR leukemia = test system: SR leukemia
M14 melanoma = test system: M14 melanoma
MALME-3M melanoma = test system: MALME-3M melanoma
T-47D breast = test system: T-47D breast
NCI-H460 lung = test system: NCI-H460 lung
SK-OV-3 ovarian = test system: SK-OV-3 ovarian
KM12 colon = test system: KM12 colon
MDA-MB-468 breast = test system: MDA-MB-468 breast
A498 renal = test system: A498 renal
MCF7 breast = test system: MCF7 breast
OVCAR-3 ovarian = test system: OVCAR-3 ovarian
TK-10 renal = test system: TK-10 renal
RXF 393 renal = test system: RXF 393 renal
DU-145 prostate = test system: DU-145 prostate
HCT-15 colon = test system: HCT-15 colon
HCT-116 colon = test system: HCT-116 colon
786-0 renal = test system: 786-0 renal
PC-3 prostate = test system: PC-3 prostate
SW-620 colon = test system: SW-620 colon
IGROV1 ovarian = test system: IGROV1 ovarian

CN1CCN(c2ccc3c(c2)nc(NNC(=O)c2ncccn2)c2cccn23)CC1
GI50 (LOX IMVI melanoma): 0.383 µM | TGI (LOX IMVI melanoma): 2.64 µM | GI50 (SK-MEL-5 melanoma): 1.16 µM | TGI (SK-MEL-5 melanoma): 3.17 µM | GI50 (NCI-H226 lung): 0.929 µM | TGI (NCI-H226 lung): 2.63 µM | GI50 (SF-539 CNS): 1.09 µM | TGI (SF-539 CNS): 4.2 µM | GI50 (SN12C renal): 1.39 µM | TGI (SN12C renal): 10.8 µM | GI50 (HCC-2998 colon): 0.706 µM | TGI (HCC-2998 colon): 3 µM | GI50 (OVCAR-8 ovarian): 0.655 µM | TGI (OVCAR-8 ovarian): 2.38 µM | GI50 (NCI/ADR-RES ovarian): 2.57 µM | TGI (NCI/ADR-RES ovarian): 9.44 µM | GI50 (MDA-MB-435): 1.78 µM | TGI (MDA-MB-435): 13.5 µM | GI50 (HS 578T breast): 3.01 µM | TGI (HS 578T breast): 34.5 µM | GI50 (K-562 leukemia): 1.88 µM | TGI (K-562 leukemia): > 32.4 µM | GI50 (NCI-H23 lung): 1.89 µM | TGI (NCI-H23 lung): 10.1 µM | GI50 (COLO 205 colon): 0.476 µM | TGI (COLO 205 colon): 1.72 µM | GI50 (SNB-75 CNS): 0.61 µM | TGI (SNB-75 CNS): 11.4 µM | GI50 (SK-MEL-2 melanoma): 1.28 µM | TGI (SK-MEL-2 melanoma): 4.21 µM | GI50 (U251 CNS): 0.514 µM | TGI (U251 CNS): 3.94 µM | GI50 (SNB-19 CNS): 0.966 µM | TGI (SNB-19 CNS): 12.5 µM | GI50 (HOP-92 NSCLC): 0.482 µM | TGI (HOP-92 NSCLC): 2.46 µM | GI50 (RPMI-8226 leukemia): 2.98 µM | TGI (RPMI-8226 leukemia): 13.3 µM | GI50 (BT-549 breast): 0.856 µM | TGI (BT-549 breast): 2.82 µM | GI50 (MDA-MB-231 breast): 0.902 µM | TGI (MDA-MB-231 breast): 3.99 µM | GI50 (UO-31 renal): 0.677 µM | TGI (UO-31 renal): 4.07 µM | GI50 (HL-60(TB) leukemia): 0.556 µM | TGI (HL-60(TB) leukemia): 4.82 µM | GI50 (CAKI-1 renal): 0.782 µM | TGI (CAKI-1 renal): 7.62 µM | GI50 (OVCAR-4 ovarian): 0.725 µM | TGI (OVCAR-4 ovarian): 4.1 µM | GI50 (SK-MEL-28 melanoma): 0.849 µM | TGI (SK-MEL-28 melanoma): 9.03 µM | GI50 (HT29 colon): 0.628 µM | TGI (HT29 colon): 2.34 µM | GI50 (NCI-H522 lung): 0.927 µM | TGI (NCI-H522 lung): 5.31 µM | GI50 (HOP-62 NSCLC): 0.453 µM | TGI (HOP-62 NSCLC): 3.2 µM | GI50 (UACC-62 melanoma): 0.828 µM | TGI (UACC-62 melanoma): 3.45 µM | GI50 (SF-295 CNS): 0.622 µM | TGI (SF-295 CNS): 2.96 µM | GI50 (A549 NSCLC): 1.7 µM | TGI (A549 NSCLC): 11.3 µM | GI50 (ACHN renal): 0.712 µM | TGI (ACHN renal): 6.01 µM | GI50 (CCRF-CEM leukemia): 0.224 µM | TGI (CCRF-CEM leukemia): 2.1 µM | GI50 (SF-268 CNS): 0.594 µM | TGI (SF-268 CNS): 11.9 µM | GI50 (OVCAR-5 ovarian): 1.37 µM | TGI (OVCAR-5 ovarian): 5.8 µM | GI50 (UACC-257 melanoma): 2.28 µM | TGI (UACC-257 melanoma): 6.25 µM | GI50 (EKVX NSCLC): 0.529 µM | TGI (EKVX NSCLC): 3.96 µM | GI50 (MOLT-4 leukemia): 0.435 µM | TGI (MOLT-4 leukemia): 15.6 µM | GI50 (SR leukemia): 0.433 µM | TGI (SR leukemia): 11.6 µM | GI50 (M14 melanoma): 0.611 µM | TGI (M14 melanoma): 3 µM | GI50 (MALME-3M melanoma): 1.38 µM | TGI (MALME-3M melanoma): 4.29 µM | GI50 (T-47D breast): 1.66 µM | TGI (T-47D breast): 5.78 µM | GI50 (NCI-H460 lung): 1.22 µM | TGI (NCI-H460 lung): 10.5 µM | GI50 (SK-OV-3 ovarian): 0.459 µM | TGI (SK-OV-3 ovarian): 1.83 µM | GI50 (KM12 colon): 0.63 µM | TGI (KM12 colon): 12.8 µM | GI50 (MDA-MB-468 breast): 0.408 µM | TGI (MDA-MB-468 breast): 1.82 µM | GI50 (A498 renal): 1.72 µM | TGI (A498 renal): 3.32 µM | GI50 (MCF7 breast): 1.98 µM | TGI (MCF7 breast): 9.75 µM | GI50 (OVCAR-3 ovarian): 0.704 µM | TGI (OVCAR-3 ovarian): 4.42 µM | GI50 (TK-10 renal): 0.489 µM | TGI (TK-10 renal): 3.05 µM | GI50 (RXF 393 renal): 1.43 µM | TGI (RXF 393 renal): 3.99 µM | GI50 (DU-145 prostate): 1.25 µM | TGI (DU-145 prostate): 11 µM | GI50 (HCT-15 colon): 0.762 µM | TGI (HCT-15 colon): 5.25 µM | GI50 (HCT-116 colon): 0.347 µM | TGI (HCT-116 colon): 2.61 µM | GI50 (786-0 renal): 0.795 µM | TGI (786-0 renal): 2.11 µM | GI50 (PC-3 prostate): 0.344 µM | TGI (PC-3 prostate): 4.12 µM | GI50 (SW-620 colon): 0.855 µM | TGI (SW-620 colon): 3.83 µM | GI50 (IGROV1 ovarian): 1.67 µM | TGI (IGROV1 ovarian): 11 µM
